Data on 21 molecules can be found in patent publication US8501446B2 (Vertex Pharmaceuticals Incorporated, priority 2004, dated 2013).

Read-outs that look alike come from different tables or passages of the source.

Holding throughout (type): biochemical
The target in one assay is T1, ROCK I (AA 6-553) (Homo sapiens, UniProt Q13464).
T1 construct: ROCK I (AA 6-553)
Kind of assay: ROCK inhibition assay, standard coupled enzyme system ("Enzyme"). The settings on record: enzyme-linked assay. In outline: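 ROCK I (AA 6-553) at 45 nM and 30 °C with 45 μM ATP and 200 μM peptide, in 100 mM HEPES pH 7.5, 10 mM MgCl2, 25 mM NaCl, 2 mM DTT, 1.5% DMSO. ADP output read by a PK/LDH coupled system: 2.5 mM PEP, 350 μM NADH, 30 μg/ml PK, 10 μg/ml LDH.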

Another assay concerns the target T2, JAK3 (Homo sapiens, UniProt P52333).
T2 sequence (P52333 1-1124): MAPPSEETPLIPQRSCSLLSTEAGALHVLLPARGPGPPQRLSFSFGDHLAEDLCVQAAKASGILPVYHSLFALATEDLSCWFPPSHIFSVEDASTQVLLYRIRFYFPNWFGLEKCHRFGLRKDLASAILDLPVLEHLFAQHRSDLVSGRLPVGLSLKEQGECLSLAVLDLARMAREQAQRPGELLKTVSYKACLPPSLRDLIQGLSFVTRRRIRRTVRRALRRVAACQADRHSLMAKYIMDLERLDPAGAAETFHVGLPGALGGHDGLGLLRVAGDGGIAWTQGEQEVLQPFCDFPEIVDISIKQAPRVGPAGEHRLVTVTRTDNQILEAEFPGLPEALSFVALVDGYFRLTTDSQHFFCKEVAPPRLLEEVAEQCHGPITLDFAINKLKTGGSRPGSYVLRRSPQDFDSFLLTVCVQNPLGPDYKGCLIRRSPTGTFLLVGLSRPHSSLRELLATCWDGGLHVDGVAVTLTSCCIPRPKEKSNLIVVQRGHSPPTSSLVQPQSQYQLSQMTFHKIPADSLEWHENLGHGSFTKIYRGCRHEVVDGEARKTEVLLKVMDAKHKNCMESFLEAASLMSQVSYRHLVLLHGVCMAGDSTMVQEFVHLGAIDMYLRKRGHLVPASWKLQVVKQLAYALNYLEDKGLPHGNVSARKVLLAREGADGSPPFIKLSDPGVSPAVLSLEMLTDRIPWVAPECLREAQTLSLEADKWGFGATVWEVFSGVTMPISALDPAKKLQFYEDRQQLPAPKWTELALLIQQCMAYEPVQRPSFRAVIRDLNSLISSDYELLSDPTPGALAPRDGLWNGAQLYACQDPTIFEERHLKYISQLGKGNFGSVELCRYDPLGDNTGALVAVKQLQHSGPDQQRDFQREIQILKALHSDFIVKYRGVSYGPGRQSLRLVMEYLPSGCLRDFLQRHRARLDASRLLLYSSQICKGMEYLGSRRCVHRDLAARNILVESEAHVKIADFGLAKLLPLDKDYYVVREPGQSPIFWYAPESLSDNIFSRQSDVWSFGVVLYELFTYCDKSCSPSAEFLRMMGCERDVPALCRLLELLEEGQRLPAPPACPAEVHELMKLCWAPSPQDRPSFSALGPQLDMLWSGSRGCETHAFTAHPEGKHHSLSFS
Nature of the assay: JAK3 inhibition assay (standard radioactive enzyme assay). Conditions: average Ki if more than one value determined.

The target in another assay is JAK2 (Homo sapiens, UniProt O60674). Kind of assay: JAK2 inhibition assay (radioactive enzyme assay, as for JAK3). The settings on record: average Ki if more than one value determined. In outline:
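Both kinases: poly(Glu)4Tyr substrate in 100 mM HEPES pH 7.4, 10 mM MgCl2, 1 mM DTT. Run 20 min at 25° C, TCA stop, filter-bound ³³P counted, Ki(app) fitted after background subtraction. JAK3: final [γ-³³P]ATP 5 μM, enzyme added as 2 nM solution. JAK2: final poly(Glu)4Tyr 15 μM, final ATP 12 μM.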

Another assay deals with ROCK (Homo sapiens, UniProt Q13464). Nature of the assay: ROCK inhibition assay, standard radioactive enzyme assay ("33P"). The procedure:
Some compounds were screened for their ability to inhibit ROCK using a standard radioactive enzyme assay. Assays were carried out in a solution containing 100 mM HEPES (pH 7.5), 10 mM MgCl2, 25 mM NaCl, 2 mM DTT, and 1.5% DMSO. Final substrate concentrations in the assay were 13 μM [γ-^33P] ATP (25 mCi ^33P ATP/mmol ATP, Perkin Elmer, Cambridge, Mass./Sigma Chemicals, St Louis, Mo.) and 27 μM Myelin Basic Protein (MBP). Final enzyme concentration in the assay was 5 nM ROCK. Assays were carried out at room temperature. 1.5 μl of DMSO stock containing serial dilutions of the compound of the present invention (concentrations ranging from 10 μM to 2.6 nM) was placed in a 96 well plate. 50 μl of Solution 1 (100 mM HEPES (pH 7.5), 10 mM MgCl2, […]) was added to the plate. The reaction was initiated by addition of 50 μl of Solution 2 (100 mM HEPES (pH 7.5), 10 mM MgCl2, 4 mM DTT, […] and 10 nM ROCK). After 2 hours the reaction was quenched with 50 μL of 30% trichloroacetic acid (TCA, Fisher) containing 9 mM ATP. Transfer of 140 μL of the quenched reaction to a glass fiber filter plate (Corning, Cat. No. 3511) was followed by washing 3 times with 5% TCA. 50 μL of Optima Gold scintillation fluid (Perkin Elmer) was added and the plates were counted on a Top Count (Perkin Elmer). After removing mean background values for all of the data points the data was fit using Prism software to obtain a Ki(app).

Assay [1] concerns the target T3, full length Aurora-A (AA 1-403) (Homo sapiens, UniProt O14965).
T3 construct: full length Aurora-A (AA 1-403)
T3 sequence (O14965 1-403): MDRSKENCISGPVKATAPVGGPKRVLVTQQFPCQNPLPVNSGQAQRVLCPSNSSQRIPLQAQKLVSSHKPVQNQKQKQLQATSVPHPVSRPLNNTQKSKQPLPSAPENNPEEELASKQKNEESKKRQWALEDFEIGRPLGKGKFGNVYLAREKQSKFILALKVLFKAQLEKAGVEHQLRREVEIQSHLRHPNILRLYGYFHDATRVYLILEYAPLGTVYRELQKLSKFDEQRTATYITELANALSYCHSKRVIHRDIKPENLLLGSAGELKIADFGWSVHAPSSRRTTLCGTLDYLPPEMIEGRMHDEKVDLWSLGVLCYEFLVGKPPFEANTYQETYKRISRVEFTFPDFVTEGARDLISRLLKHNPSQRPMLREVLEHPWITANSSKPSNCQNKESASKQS
Kind of assay: Aurora-A inhibition assay, standard coupled enzyme system. The settings on record: average Ki if more than one value determined.

A further assay deals with Aurora-B (Homo sapiens, UniProt Q96GD4). Nature of the assay: Aurora-B inhibition assay, radioactive assay. The settings on record: average Ki if more than one value determined. The method in brief: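 Aurora-B protein substituted into the standard radioactive kinase format: reaction quenched with TCA, product captured on glass fiber filters and 33P counted. Ki(app) derived by fitting background-corrected counts against inhibitor concentration.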
Sequence of Aurora-B (Q96GD4 whole entry): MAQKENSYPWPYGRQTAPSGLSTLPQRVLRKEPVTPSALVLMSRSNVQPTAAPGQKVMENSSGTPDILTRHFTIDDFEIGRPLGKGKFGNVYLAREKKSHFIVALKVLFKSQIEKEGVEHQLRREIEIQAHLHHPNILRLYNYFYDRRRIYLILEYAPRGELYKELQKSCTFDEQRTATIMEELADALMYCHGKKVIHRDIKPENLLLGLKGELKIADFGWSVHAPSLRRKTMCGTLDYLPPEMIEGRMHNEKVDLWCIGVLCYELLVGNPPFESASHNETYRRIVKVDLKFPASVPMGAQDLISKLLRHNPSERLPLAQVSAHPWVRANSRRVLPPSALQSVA

Sequence of JAK2 (O60674 whole entry, species assumed): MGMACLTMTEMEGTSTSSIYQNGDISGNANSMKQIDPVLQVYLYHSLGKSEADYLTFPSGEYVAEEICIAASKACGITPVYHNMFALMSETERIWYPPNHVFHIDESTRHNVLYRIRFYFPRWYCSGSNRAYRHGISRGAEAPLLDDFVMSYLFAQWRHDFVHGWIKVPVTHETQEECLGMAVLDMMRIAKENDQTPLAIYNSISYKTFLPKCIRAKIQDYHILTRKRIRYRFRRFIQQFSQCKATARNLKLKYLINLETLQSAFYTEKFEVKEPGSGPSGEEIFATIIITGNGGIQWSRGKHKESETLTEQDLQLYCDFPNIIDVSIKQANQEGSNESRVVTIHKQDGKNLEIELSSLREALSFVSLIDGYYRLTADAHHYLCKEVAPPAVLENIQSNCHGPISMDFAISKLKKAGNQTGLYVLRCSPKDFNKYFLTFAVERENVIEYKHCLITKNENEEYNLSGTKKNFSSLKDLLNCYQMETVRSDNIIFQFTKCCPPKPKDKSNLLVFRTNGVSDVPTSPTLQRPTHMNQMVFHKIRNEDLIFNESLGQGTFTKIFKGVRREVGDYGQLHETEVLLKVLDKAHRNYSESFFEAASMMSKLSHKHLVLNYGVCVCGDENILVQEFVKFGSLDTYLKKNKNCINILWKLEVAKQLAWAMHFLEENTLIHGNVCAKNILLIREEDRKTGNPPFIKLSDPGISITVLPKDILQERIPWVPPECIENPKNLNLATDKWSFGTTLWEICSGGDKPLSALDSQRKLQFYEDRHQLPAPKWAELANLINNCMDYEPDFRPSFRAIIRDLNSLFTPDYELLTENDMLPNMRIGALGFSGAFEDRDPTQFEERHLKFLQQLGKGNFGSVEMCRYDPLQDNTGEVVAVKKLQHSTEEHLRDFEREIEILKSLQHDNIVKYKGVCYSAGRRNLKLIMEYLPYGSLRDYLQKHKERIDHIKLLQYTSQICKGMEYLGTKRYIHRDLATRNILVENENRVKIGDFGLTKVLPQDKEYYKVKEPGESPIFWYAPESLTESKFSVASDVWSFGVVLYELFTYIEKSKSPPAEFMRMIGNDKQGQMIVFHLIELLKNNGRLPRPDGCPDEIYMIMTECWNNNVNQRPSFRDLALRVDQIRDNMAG
Sequence of ROCK (Q13464 whole entry): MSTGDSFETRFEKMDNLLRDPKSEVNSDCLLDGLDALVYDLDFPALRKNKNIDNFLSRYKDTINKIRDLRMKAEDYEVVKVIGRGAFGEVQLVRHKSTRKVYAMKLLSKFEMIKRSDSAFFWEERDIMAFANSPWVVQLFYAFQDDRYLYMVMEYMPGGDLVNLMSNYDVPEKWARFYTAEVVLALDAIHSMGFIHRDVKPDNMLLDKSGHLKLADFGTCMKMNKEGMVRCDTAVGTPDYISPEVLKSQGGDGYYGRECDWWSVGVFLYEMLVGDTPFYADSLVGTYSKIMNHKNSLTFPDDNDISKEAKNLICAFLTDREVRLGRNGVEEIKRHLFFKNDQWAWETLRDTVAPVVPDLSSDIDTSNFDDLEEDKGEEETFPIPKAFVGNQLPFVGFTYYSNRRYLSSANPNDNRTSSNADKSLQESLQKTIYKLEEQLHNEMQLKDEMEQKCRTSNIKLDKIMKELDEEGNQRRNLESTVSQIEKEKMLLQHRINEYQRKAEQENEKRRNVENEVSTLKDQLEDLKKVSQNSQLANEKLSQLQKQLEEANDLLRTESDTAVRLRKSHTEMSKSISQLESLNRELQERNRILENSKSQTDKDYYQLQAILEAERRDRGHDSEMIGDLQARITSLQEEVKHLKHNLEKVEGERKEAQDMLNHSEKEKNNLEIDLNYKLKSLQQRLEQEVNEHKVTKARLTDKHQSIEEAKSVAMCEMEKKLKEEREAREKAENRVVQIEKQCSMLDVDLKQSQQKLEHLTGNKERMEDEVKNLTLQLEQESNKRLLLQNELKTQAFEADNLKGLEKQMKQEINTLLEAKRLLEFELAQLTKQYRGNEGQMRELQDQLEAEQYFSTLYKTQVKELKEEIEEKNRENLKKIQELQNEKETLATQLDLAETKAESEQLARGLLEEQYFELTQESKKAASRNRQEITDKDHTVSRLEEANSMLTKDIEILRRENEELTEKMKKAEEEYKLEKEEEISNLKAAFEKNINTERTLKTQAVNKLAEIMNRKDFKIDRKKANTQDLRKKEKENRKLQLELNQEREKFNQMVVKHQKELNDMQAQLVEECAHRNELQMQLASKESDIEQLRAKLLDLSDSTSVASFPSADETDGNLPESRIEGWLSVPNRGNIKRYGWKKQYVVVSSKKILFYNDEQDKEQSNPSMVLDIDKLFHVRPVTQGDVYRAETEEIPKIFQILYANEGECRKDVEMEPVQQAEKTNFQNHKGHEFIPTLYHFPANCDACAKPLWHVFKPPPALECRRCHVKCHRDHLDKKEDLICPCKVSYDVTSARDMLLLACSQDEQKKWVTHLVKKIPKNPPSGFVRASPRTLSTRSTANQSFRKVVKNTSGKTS
T1 sequence (Q13464 6-553, species assumed): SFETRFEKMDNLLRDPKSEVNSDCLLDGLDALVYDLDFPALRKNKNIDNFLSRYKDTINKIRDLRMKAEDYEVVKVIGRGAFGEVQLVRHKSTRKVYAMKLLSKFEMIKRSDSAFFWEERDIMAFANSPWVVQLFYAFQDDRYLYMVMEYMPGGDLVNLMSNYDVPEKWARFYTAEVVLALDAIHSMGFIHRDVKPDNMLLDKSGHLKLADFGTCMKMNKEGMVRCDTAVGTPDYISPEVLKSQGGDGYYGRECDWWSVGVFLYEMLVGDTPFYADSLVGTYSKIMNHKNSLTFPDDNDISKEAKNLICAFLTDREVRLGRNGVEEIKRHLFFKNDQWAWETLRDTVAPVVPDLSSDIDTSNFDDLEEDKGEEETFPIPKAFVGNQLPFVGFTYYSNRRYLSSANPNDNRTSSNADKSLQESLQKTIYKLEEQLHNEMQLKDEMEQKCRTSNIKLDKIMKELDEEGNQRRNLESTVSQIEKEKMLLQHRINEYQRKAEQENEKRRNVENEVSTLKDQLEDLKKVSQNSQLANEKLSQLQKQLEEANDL

In the case of `CCCOC(=O)N1CCCN(c2nccc(-c3c[nH]c4ncc(OC)cc34)n2)CC1` [Compound 34], the Ki on ROCK I (AA 6-553) was below 500 nM; at JAK3 it was below 500 nM; on JAK2 it was below 500 nM; at ROCK, 500 to 5000 nM.

For the molecule `Clc1cnc2[nH]cc(-c3ccnc(N4CCCCCC4)n3)c2c1` [Compound 9], the Ki at JAK3 (Ki(app)) was 500 to 5000 nM; at JAK3 it was below 500 nM; at JAK2 (Ki(app)), 500 to 5000 nM; at JAK2, below 500 nM; in assay [1] it was 500 to 5000 nM; on ROCK it was 500 to 5000 nM. The Ki at ROCK (Ki(app)) lay in the range of 500 to 5000 nM.

In the case of `Clc1cnc2[nH]cc(-c3cccc(NCc4ccccc4)n3)c2c1` [Compound 20], the Ki on JAK3 was below 500 nM; on JAK2, below 500 nM; in assay [1], below 500 nM; at ROCK, 500 to 5000 nM.

As to `CC(C)C[C@@H](CO)Nc1nccc(-c2c[nH]c3ncc(Cl)cc23)n1` [Compound 10], the Ki (at JAK3; on JAK2; in assay [1]; at ROCK) was below 500 nM each time.

With `Clc1cnc2[nH]cc(-c3ccnc(NCc4ccccc4)n3)c2c1` [Compound 4], the Ki (at JAK3; at JAK2; in assay [1]; at ROCK) was below 500 nM throughout.

As to `COc1cnc2[nH]cc(-c3cc(N[C@H](C)c4ccccc4)ncn3)c2c1` [Compound 13], the Ki was below 500 nM on JAK3, below 500 nM at JAK2 and 500 to 5000 nM at ROCK.

As for `c1cncc(CNc2nccc(-c3c[nH]c4ncccc34)n2)c1` [Compound 6], the Ki on JAK3, on JAK2 and on ROCK was below 500 nM in each case.

With `c1ccc(CNc2ccnc(-c3c[nH]c4ncccc34)n2)cc1` [Compound 11, Benzyl-[2-(1H-pyrrolo[2,3-b]pyridin-3-yl)-pyrimidin-4-yl]amine], the Ki at JAK3 (Ki(app)), on JAK2 (Ki(app)) and at ROCK (Ki(app)) was below 500 nM each time.

Consider `c1ccc(CNc2nccc(-c3c[nH]c4ncc(-c5cccnc5)cc34)n2)cc1` [Compound 2], for which the Ki at JAK3 is below 500 nM; on JAK2 it was below 500 nM; at ROCK, 500 to 5000 nM.

With `C[C@@H]1CCNCC1N(C)c1cc(-c2c[nH]c3ncccc23)ncn1` (some centres unmarked) [Compound 17], the figures for the Ki on JAK3, on JAK2 and on ROCK were 500 to 5000 nM, 500 to 5000 nM and below 500 nM, respectively.

For the molecule `COc1cnc2[nH]cc(-c3ccnc(N4C[C@@H](C)N(C(C)=O)[C@@H](C)C4)n3)c2c1` [Compound 25], the Ki (at JAK3; at JAK2; in assay [1]; at ROCK) was below 500 nM throughout.

For `CCS(=O)(=O)N1CCCN(c2nccc(-c3c[nH]c4ncc(OC)cc34)n2)CC1` [Compound 31], the Ki on JAK3, at JAK2 and on ROCK was below 500 nM each time.

Turning to `Nc1cccc(CNc2cc(-c3c[nH]c4ncccc34)ncn2)c1` [Compound 28], the Ki on JAK3, on JAK2 and at ROCK was below 500 nM throughout.

For `CC(=O)N1CCCN(c2nccc(-c3c[nH]c4ncc(-c5cccnc5)cc34)n2)CC1` [Compound 3], the Ki at JAK3, at JAK2 and on ROCK was below 500 nM throughout.

Turning to `COc1cnc2[nH]cc(-c3ccnc(N4CCCN(C(C)=O)CC4)n3)c2c1` [Compound 24], the Ki on JAK3 is below 500 nM; on JAK2, below 500 nM; in assay [1] it was 500 to 5000 nM; on ROCK, below 500 nM.

Turning to `Nc1ccc(-c2c(-c3ccccc3)[nH]c3ncc(Br)cc23)cc1` [Compound 212], the Ki was below 500 nM in assay [1], 500 to 5000 nM on ROCK and 500 to 5000 nM on Aurora-B.

On to `CC(=O)N1[C@H](C)CN(c2nc(-c3c[nH]c4ncc(Cl)cc34)ccc2C(N)=O)C[C@@H]1C` [Compound 32], for which the Ki at JAK3 is below 500 nM; at JAK2, below 500 nM; in assay [1], below 500 nM; at ROCK, 500 to 5000 nM.

Turning to `Fc1ccc(CNc2cc(-c3c[nH]c4ncccc34)ncn2)cc1` [Compound 27], the Ki on JAK3, at JAK2 and at ROCK was below 500 nM each time.

In the case of `CC(=O)N1[C@H](C)CN(c2cccc(-c3c[nH]c4ncc(NC(=O)OC(C)(C)C)cc34)n2)C[C@@H]1C` [Compound 37], the Ki was 500 to 5000 nM on ROCK I (AA 6-553), below 500 nM at JAK3, below 500 nM on JAK2 and below 500 nM on ROCK.

Turning to `COc1cnc2[nH]cc(-c3cc(N[C@@H](C)c4ccccc4)ncn3)c2c1` [Compound 14], the Ki on JAK3 is below 500 nM; on JAK2, below 500 nM; in assay [1], 500 to 5000 nM; on ROCK it was below 500 nM.

As for `COc1cnc2[nH]cc(-c3ccnc(N4CCCN(S(C)(=O)=O)CC4)n3)c2c1` [Compound 30], the Ki (on JAK3; on JAK2; in assay [1]; at ROCK) was below 500 nM throughout.
